Assay [1] has as its target 4-aminobutyrate aminotransferase, mitochondrial (Sus scrofa) (UniProt P80147). Description: Residual activity at pig brain GABA-AT assessed by exhaustive dialysis at 0.2 M after 22 hrs relative to control.
The target of assay [2] is 4-aminobutyrate aminotransferase, mitochondrial (Sus scrofa, UniProt P80147). Description: Inhibition of pig brain GABA-AT in presence of beta-mercaptoethanol.
For assay [3], the target named is 4-aminobutyrate aminotransferase, mitochondrial (Sus scrofa) (UniProt P80147). The assay is described as follows: Inhibition of pig brain GABA-AT in presence of beta-mercaptoethanol at 0.2 M. Particulars: TDE = time-dependent effect.

In general, Ki refers to a measure of affinity in units of concentration, obtained from inhibition or displacement.

4-aminobutyrate aminotransferase, mitochondrial (Sus scrofa), sequence (P80147 whole entry): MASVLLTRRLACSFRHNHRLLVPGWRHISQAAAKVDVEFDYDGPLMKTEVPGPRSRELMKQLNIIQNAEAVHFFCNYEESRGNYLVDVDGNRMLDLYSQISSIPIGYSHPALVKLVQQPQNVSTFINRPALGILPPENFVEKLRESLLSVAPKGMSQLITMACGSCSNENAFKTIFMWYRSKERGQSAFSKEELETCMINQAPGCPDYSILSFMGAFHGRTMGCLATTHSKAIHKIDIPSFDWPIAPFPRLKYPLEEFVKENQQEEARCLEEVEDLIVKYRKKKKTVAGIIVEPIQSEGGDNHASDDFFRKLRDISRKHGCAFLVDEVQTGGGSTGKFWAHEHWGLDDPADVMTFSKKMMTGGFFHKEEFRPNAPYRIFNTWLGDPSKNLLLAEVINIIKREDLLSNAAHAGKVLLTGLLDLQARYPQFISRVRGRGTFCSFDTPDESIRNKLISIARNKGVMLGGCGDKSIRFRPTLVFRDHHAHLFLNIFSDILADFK
4-aminobutyrate aminotransferase, mitochondrial, sequence (P80147 whole entry): as above

For `N[C@H]1C[C@@H](C(=O)O)C=C1C(F)(F)F`, the Activity is 48% in assay [1] and “tde” in assay [3]. In assay [2], the Ki was found to be 4.11 mM. Turning to `N[C@H]1C[C@@H](C(=O)O)CC1=CC(F)(F)F`, the Activity in assay [1] is 13%; in assay [3], “tde”. In addition, the Ki in assay [2] amounted to 39.2 mM. As to `N[C@H]1C[C@@H](C(=O)O)C=C1C(F)(F)C(F)(F)F`, in assay [2], the Ki is 2.8 mM. The same measure, in the same setting: to `N[C@H]1C[C@@H](C(=O)O)CC1=C(C(F)(F)F)C(F)(F)F` belongs 4.2 mM. Same read-out and setting: in the case of `N[C@H]1C[C@@H](C(=O)O)C=C1F` it was 1.3 mM. For `N[C@H]1C[C@@H](C(=O)O)C/C1=C/C(F)(F)F`, the Ki in assay [2] came out at 7.74 mM. In assay [3], the Activity entry is “tde”.

Source of the values: ChEMBL document CHEMBL1137304, “Fluorinated conformationally restricted gamma-aminobutyric acid aminotransferase inhibitors” (J Med Chem, 2006).
